{
  "source": "patent US20070225202A1",
  "about": "“Methods for Identifying Modulators of Active Kit Tyrosine Kinase Receptor” (priority 2003, published 2007)",
  "key": {"KIT816 mutants": {"system": "KIT816 mutants", "details": "previous studies; cited from earlier work"}, "[1]": {"system": "constitutively active KIT mutants exhibiting mutations in the juxtamembrane domain", "details": "cited from earlier work"}, "[2]": {"system": "HMC1.1 cells (naturally expressing KITV560G)", "assay": "cells", "details": "Homo sapiens, 72 h, read-out: inhibition of proliferation", "experimental": "The cell-viability assay was performed using an ATPlite™ assay (PerkinElmer Life Sciences, Boston, Mass.), according to the manufacturer's protocol. […] Cells were incubated for 72 hours in the presence or absence of KIT inhibitors and cell viability measured"}, "KITD814V and KITD814Y": {"system": "KITD814V and KITD814Y", "details": "KITD814V and KITD814Y expressed in transfected cells; cited from earlier work"}},
  "data": [
    {"compound": "Cc1ccc(NC(=O)c2ccc(CN3CCN(C)CC3)cc2)cc1Nc1nccc(-c2cccnc2)n1", "note": "[Gleevec]", "values": [
      {"measurement": "effectiveness against KIT816 mutants", "setting": "KIT816 mutants", "value": "ineffective"},
      {"measurement": "inhibition of constitutively active KIT mutants", "setting": "[1]", "value": "inhibit constitutively active KIT mutants"},
      {"measurement": "inhibition at 0.1 µM", "setting": "[2]", "value": "~80", "unit": "%"}
    ]},
    {"compound": "Cc1ccc(-c2nn(C(C)(C)C)c3ncnc(N)c23)cc1", "note": "[PP1]", "values": [
      {"measurement": "inhibition of activated KIT receptors", "setting": "KITD814V and KITD814Y", "value": "act as inhibitors of activated KIT receptors"}
    ]},
    {"compound": "CC(C)(C)n1nc(-c2ccc(Cl)cc2)c2c(N)ncnc21", "note": "[PP2]", "values": [
      {"measurement": "inhibition of activated KIT receptors", "setting": "KITD814V and KITD814Y", "value": "act as inhibitors of activated KIT receptors"}
    ]}
  ]
}
